Reference: US20080045514A1 (Cytovia, Inc., priority 2006, published 2008)
Where a name gives a salt, the structure may show the parent alone.

Experiments:
Assay type in all cases: cell-based
[1] = test system: human colon carcinoma cell line HCT116; assay: Caspase cascade activation (EC50), HCT116; settings: Homo sapiens, HCT-116; HCT116 cells; caspase cascade activation; read-out: caspase potency (EC50) HCT116
Protocol: (§1) Human breast cancer cell lines T-47D, human hepatocellular carcinoma cell line SNU398, human colon carcinoma cell line HCT116, human cancer cell line H1299, human Burkitt's lymphoma cell line Namalwa, human lymphoma cell line Raji, and human B cell lymphoblastoid cell line Ramos were grown according to media component mixtures designated by American Type Culture Collection+10% FCS (Invitrogen Corporation), in a 5% CO2-95% humidity incubator at 37° C. T-47D and H1299 cells were maintained at a cell density between 50 and 80% confluency at a cell density of 0.1 to 0.6×10^6 cells/mL. Cells were harvested at 600×g and resuspended at 0.65×10^6 cells/mL into appropriate media+10% FCS. An aliquot of 22.5 μL of cells was added to a well of a 384-well microtiter plate containing 2.5 μL of a 10% DMSO in RPMI-1640 media solution containing 0.16 to 100 μM of 3-(2-chlorophenyl)-6-(3,4-methylenedioxyphenyl)-7H-[1,2,4]triazolo[3,4-b][1,3,4]thiadiazine or other test compound (0.016 to 10 μM final). An aliquot of 22.5 μL of cells was added to a well of a 384-well microtiter plate containing 2.5 μL of a 10% DMSO in RPMI-1640 media solution without test compound as the control sample. The samples were mixed by agitation and then incubated at 37° C. for 48 h in a 5% CO2-95% humidity incubator. After incubation, the samples were removed from the incubator and 25 μL of a solution containing 14 μM of N—(Ac-DEVD)-N′-ethoxycarbonyl-R110 (SEQ ID No.:1) fluorogenic substrate (Cytovia, Inc.; WO99/18856), 20% sucrose (Sigma), 20 mM DTT (Sigma), 200 mM NaCl (Sigma), 40 mM Na PIPES buffer pH 7.2 (Sigma), and 500 μg/mL lysolecithin (Calbiochem) was added. The samples were mixed by agitation and incubated at room temperature. Using a fluorescent plate reader (Model SPECTRAfluor Plus, Tecan), an initial reading (T=0) was made approximately 1-2 min after addition of the substrate solution, employing excitation at 485 nm and emission at 530 nm, to determine the background fluorescence of the control sample. After the 3 h incubation, the samples were read for fluorescence as above (T=3 h). Calculation: The Relative Fluorescence Unit values (RFU) were used to calculate the sample readings as follows: RFU(T=3H)−Control RFU(T=0)=Net RFU(T=3h) The activity of caspase cascade activation was determined by the ratio of the net RFU value for 3-(2-chlorophenyl)-6-(3,4-methylenedioxyphenyl)-7H-[1,2,4]triazolo[3,4-b][1,3,4]thiadiazine (Example P) or other test compound to that of control samples. The EC50 (nM) was determined by a sigmoidal dose-response calculation (Prism 3.0, GraphPad Software Inc.).

[2] = test system: human lymphoma cell line Raji; assay: Caspase cascade activation (EC50), Raji; settings: Homo sapiens, RAJI cells, read-out: caspase potency (EC50) RAJI
Protocol: as §1

[3] = test system: human B cell lymphoblastoid cell line Ramos; assay: Caspase cascade activation (EC50), Ramos; settings: Homo sapiens, RAMOS cells, read-out: caspase potency (EC50) RAMOS
Protocol: as §1

[4] = test system: human breast cancer cell line T-47D; assay: Caspase cascade activation (EC50), T-47D; settings: Homo sapiens; T47D cells; caspase cascade activation; read-out: caspase potency (EC50) T47D
Protocol: as §1

[5] = test system: human Burkitt's lymphoma cell line Namalwa; assay: Caspase cascade activation (EC50), Namalwa; settings: Homo sapiens, Burkitts lymphoma cell; Namalwa cells; caspase cascade activation; read-out: caspase potency (EC50) Namalwa
Protocol: as §1

[6] = test system: human hepatocellular carcinoma cell line SNU398; assay: Caspase cascade activation (EC50), SNU398; settings: Homo sapiens, SNU-398; SNU398 cells; caspase cascade activation; read-out: caspase potency (EC50) SNU398
Protocol: as §1

Compound	EC50 [1]	EC50 [2]	EC50 [3]	EC50 [4]	EC50 [5]	EC50 [6]
COc1ccc(-c2nnc3n2N=C(c2ccc([N+](=O)[O-])cc2)CS3)cc1OC [Example 28, 3-(3,4-Dimethoxyphenyl)-6-(4-nitrophenyl)-7H-[1,2,4]triazolo[3,4-b][1,3,4]thiadiazine]	> 10000 nM	> 10000 nM	> 10000 nM	> 10000 nM	> 10000 nM	> 10000 nM
COc1ccc(-c2nnc3n2N=C(c2ccc(N)cc2)CS3)cc1OC [Example 29, 6-(4-Aminophenyl)-3-(3,4-dimethoxyphenyl)-7H-[1,2,4]triazolo[3,4-b][1,3,4]thiadiazine]	5280 nM		545 nM	4720 nM		2540 nM
COc1ccc(C2=Nn3c(nnc3-c3cccc(OC(C)C)c3)SC2)cc1 [Example K2, 3-(3-Isopropyloxyphenyl)-6-(4-methoxyphenyl)-7H-[1,2,4]triazolo[3,4-b][1,3,4]thiadiazine]	> 10000 nM	5470 nM	5840 nM	5470 nM	5530 nM	5560 nM
c1cc2c(cc1C1=Nn3c(nnc3C3CCCCC3)SC1)OCO2 [Example M2, 3-Cyclohexyl-6-(3,4-methylenedioxyphenyl)-7H-[1,2,4]triazolo[3,4-b][1,3,4]thiadiazine]	> 10000 nM	5190 nM	5150 nM	4330 nM	5240 nM	4770 nM
c1ccc(-c2nnc3n2N=C(c2ccc4c(c2)OCO4)CS3)cc1 [Example P1, 3-Phenyl-6-(3,4-methylenedioxyphenyl)-7H-[1,2,4]triazolo[3,4-b][1,3,4]thiadiazine]	> 10000 nM	> 1000 nM	628 nM	669 nM		2640 nM
COc1ccc(C2=Nn3c(nnc3-c3cc(Cl)c(OC)c(OC)c3)SC2)cc1 [Example 5, 3-(3-Chloro-4,5-dimethoxyphenyl)-6-(4-methoxyphenyl)-7H-[1,2,4]triazolo[3,4-b][1,3,4]thiadiazine]		133 nM	78 nM		71 nM	
COc1cc(-c2nnc3n2N=C(c2ccc(Cl)cc2)CS3)cc(OC)c1OC [Example W1, 3-(3,4,5-Trimethoxyphenyl)-6-(4-chlorophenyl)-7H-[1,2,4]triazolo[3,4-b][1,3,4]thiadiazine]	130 nM	72 nM	78 nM	276 nM	153 nM	111 nM
COc1cc(-c2nnc3n2N=C(c2cccc(Br)c2)CS3)cc(OC)c1OC [Example X1, 3-(3,4,5-Trimethoxyphenyl)-6-(3-bromophenyl)-7H-[1,2,4]triazolo[3,4-b][1,3,4]thiadiazine]	2480 nM	3410 nM	2510 nM	2640 nM	2510 nM	2650 nM
CCN(CC)c1ccc(C2=Nn3c(nnc3-c3ccc(OC)c(OC)c3)SC2)cc1 [Example 22, 6-(4-Diethylaminophenyl)-3-(3,4-dimethoxyphenyl)-7H-[1,2,4]triazolo[3,4-b][1,3,4]thiadiazine]	188 nM	270 nM	258 nM	534 nM	214 nM	122 nM
COc1cc(-c2nnc3n2N=C(c2ccc4ccccc4c2)CS3)cc(OC)c1OC [Example Y1, 3-(3,4,5-Trimethoxyphenyl)-6-(2-naphthyl)-7H-[1,2,4]triazolo[3,4-b][1,3,4]thiadiazine]	119 nM	127 nM	99 nM	556 nM	139 nM	81 nM
COc1cc(-c2nnc3n2N=C(c2ccc(O)c(O)c2)CS3)cc(OC)c1OC [Example Z1, 3-(3,4,5-Trimethoxyphenyl)-6-(3,4-dihydroxyphenyl)-7H-[1,2,4]triazolo[3,4-b][1,3,4]thiadiazine]	240 nM	176 nM	219 nM	284 nM	200 nM	101 nM
COc1cc(-c2nnc3n2N=C(c2ccc(Br)cc2)CS3)cc(OC)c1OC [Example U1, 3-(3,4,5-Trimethoxyphenyl)-6-(4-bromophenyl)-7H-[1,2,4]triazolo[3,4-b][1,3,4]thiadiazine]	65 nM	65 nM	39 nM	145 nM	40 nM	42 nM
Cc1ccc(C2=Nn3c(nnc3-c3ccccc3Cl)SC2)cc1 [Example 11, 3-(2-Chlorophenyl)-6-(4-methylphenyl)-7H-[1,2,4]triazolo[3,4-b][1,3,4]thiadiazine hydrochloride]		157 nM	72 nM		71 nM	
COc1ccc(-c2nnc3n2N=C(c2ccc4[nH]c(=O)oc4c2)CS3)c(OC)c1 [Example 33, 6-(2,3-Dihydro-2-oxobenzo[d]oxazol-6-yl)-3-(2,4-dimethoxyphenyl)-7H-[1,2,4]triazolo[3,4-b][1,3,4]thiadiazine]		2400 nM	2680 nM		2730 nM	
COc1ccccc1-c1nnc2n1N=C(c1ccc([N+](=O)[O-])cc1)CS2 [Example X2]		4860 nM	2580 nM		2580 nM	
COc1ccc(-c2nnc3n2N=C(c2ccc4c(c2)OCO4)CS3)cc1OC [Example O1, 3-(3,4-Dimethoxyphenyl)-6-(3,4-methylenedioxyphenyl)-7H-[1,2,4]triazolo[3,4-b][1,3,4]thiadiazine]	> 10000 nM	540 nM	514 nM	542 nM		501 nM
COc1ccc(C2=Nn3c(nnc3-c3ccc(F)cc3)SC2)cc1 [Example S2]	700 nM	569 nM	339 nM	1660 nM	546 nM	271 nM
COc1ccccc1-c1nnc2n1N=C(c1ccc(OCCN(C)C)cc1)CS2 [Example 9, 3-(2-Methoxyphenyl)-6-(4-(2-dimethylaminoethoxy)phenyl)-7H-[1,2,4]triazolo[3,4-b][1,3,4]thiadiazine]		3370 nM	2650 nM		2560 nM	
Cc1ccccc1-c1nnc2n1N=C(c1ccc(C)c([N+](=O)[O-])c1)CS2 [Example 53, 6-(4-Methyl-3-nitrophenyl)-3-(2-methylphenyl)-7H-[1,2,4]triazolo[3,4-b][1,3,4]thiadiazine]	> 10000 nM			> 10000 nM	> 10000 nM	> 10000 nM
COc1ccccc1-c1nnc2n1N=C(c1ccc(C)c([N+](=O)[O-])c1)CS2 [Example 54, 3-(2-Methoxyphenyl)-6-(4-methyl-3-nitrophenyl)-7H-[1,2,4]triazolo[3,4-b][1,3,4]thiadiazine]	441 nM			554 nM	290 nM	306 nM
COc1ccc(-c2nnc3n2N=C(c2ccc(NC(C)=O)cc2)CS3)cc1OC [Example 32, 6-(4-Acetamidophenyl)-3-(3,4-dimethoxyphenyl)-7H-[1,2,4]triazolo[3,4-b][1,3,4]thiadiazine]		> 10000 nM	4860 nM		> 10000 nM	
Cc1ccccc1-c1nnc2n1N=C(c1ccc(C(C)(C)C)cc1)CS2 [Example 51, 6-(4-tert-Butylphenyl)-3-(2-methylphenyl)-7H-[1,2,4]triazolo[3,4-b][1,3,4]thiadiazine]	> 10000 nM			> 10000 nM	> 10000 nM	> 10000 nM
